{
  "source": "paper PMC5412352",
  "about": "(International Journal of Molecular Sciences, 2017)",
  "key": {"[1]": {"target": "T1, muscarinic M1Rs (Homo sapiens, UniProt P11229)", "T1 construct": "Eurofins Panlabs (Taiwan), contract screening", "T1 sequence (P11229 1-460)": "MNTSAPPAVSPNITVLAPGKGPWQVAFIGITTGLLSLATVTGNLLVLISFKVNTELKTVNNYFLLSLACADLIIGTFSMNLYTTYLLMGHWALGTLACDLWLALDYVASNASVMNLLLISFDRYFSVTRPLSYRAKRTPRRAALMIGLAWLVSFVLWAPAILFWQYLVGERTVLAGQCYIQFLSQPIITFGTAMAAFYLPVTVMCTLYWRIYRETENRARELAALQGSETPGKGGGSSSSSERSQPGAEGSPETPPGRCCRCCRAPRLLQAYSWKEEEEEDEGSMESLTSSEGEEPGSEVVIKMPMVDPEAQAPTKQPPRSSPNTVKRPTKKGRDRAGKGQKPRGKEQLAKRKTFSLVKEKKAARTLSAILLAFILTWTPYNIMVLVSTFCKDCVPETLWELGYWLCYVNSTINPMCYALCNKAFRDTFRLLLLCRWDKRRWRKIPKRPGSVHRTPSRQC", "test": "Commercial screening by Eurofins Panlabs", "type": "binding"}, "[2]": {"target": "T2, muscarinic M2Rs (Homo sapiens, UniProt P08172)", "T2 construct": "Eurofins Panlabs (Taiwan), contract screening", "T2 sequence (P08172 1-466)": "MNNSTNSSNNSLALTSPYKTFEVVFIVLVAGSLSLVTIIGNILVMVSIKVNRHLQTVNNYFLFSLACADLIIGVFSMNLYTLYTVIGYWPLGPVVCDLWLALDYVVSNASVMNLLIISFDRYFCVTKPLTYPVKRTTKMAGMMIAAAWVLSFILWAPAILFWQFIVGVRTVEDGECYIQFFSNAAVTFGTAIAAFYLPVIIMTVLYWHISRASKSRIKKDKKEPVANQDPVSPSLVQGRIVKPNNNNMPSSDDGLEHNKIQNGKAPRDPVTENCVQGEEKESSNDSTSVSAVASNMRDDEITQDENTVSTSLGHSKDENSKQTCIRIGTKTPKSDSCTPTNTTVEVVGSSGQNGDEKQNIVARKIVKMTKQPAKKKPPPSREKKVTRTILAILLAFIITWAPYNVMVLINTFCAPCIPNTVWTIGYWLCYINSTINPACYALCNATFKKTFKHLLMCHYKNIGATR", "test": "Commercial screening by Eurofins Panlabs", "type": "binding"}, "[3]": {"target": "human GhrR (hGhrR-eYFP, HEK293 cell membranes) (Homo sapiens, UniProt Q92847)", "sequence (Q92847 whole entry)": "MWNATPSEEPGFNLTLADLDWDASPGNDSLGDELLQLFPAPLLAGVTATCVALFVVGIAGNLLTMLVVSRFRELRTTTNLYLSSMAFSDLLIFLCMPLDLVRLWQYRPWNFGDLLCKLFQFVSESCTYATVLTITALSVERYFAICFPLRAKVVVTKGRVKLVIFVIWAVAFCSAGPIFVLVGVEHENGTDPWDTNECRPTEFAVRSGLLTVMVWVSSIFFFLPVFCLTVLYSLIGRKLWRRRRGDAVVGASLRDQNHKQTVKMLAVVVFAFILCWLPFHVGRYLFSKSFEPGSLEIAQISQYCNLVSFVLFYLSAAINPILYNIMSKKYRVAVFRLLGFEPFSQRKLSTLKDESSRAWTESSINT", "test": "Competitive radioligand binding assay with [125I-His9]ghrelin at hGhrR membranes", "procedure": "Each concentration was tested in duplicate. The membrane-bound radioligand was trapped on a Filtermat B (PerkinElmer) pre-soaked with 0.1% polyethylenimine in H2O by using a filtermat harvester (PerkinElmer). After drying for 20 min at 55 °C, a Meltilex scintillation sheet (PerkinElmer) was melted onto the filtermat and the samples were counted in a Microbeta scintillation counter (PerkinElmer)."}},
  "note": "Entries after “also recorded” stand apart in the source; their conditions may differ.",
  "data": [
    {"smiles": "Cc1nc2ccc(Oc3ccc(Br)cc3F)nc2c(=O)n1C[C@H]1CCCN(C(C)C)C1", "note": "[(S)-9, (S)-6-(4-Bromo-2-fluorophenoxy)-3-((1-isopropylpiperidin-3-yl)methyl)-2-methylpyrido[3,2-d]pyrimidin-4(3H)-one]", "values": [
      {"measurement": "significant response (≥50% inhibition or stimulation)", "setting": "[1]", "value": "did not show significant responses; also recorded: did not show significant binding"},
      {"measurement": "significant response (≥50% inhibition or stimulation)", "setting": "[2]", "value": "did not show significant responses; also recorded: did not show significant binding"},
      {"measurement": "IC50", "setting": "[3]", "value": 2.19, "unit": "nM"}
    ]}
  ]
}
